#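 Following 48 hours of exposure in 96-well plates, responses at five concentrations were used to interpolate endpoints linearly. The concentration for 50% growth inhibition is given as GI50.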 Calls of active or inactive are those of the source. No stated cut-off is given here; in the data, active = GI50 up to about 1.1 µM and inactive = higher.
# Tests used:
# Test in all cases: DTP human tumour cell line panel, 48 h
# UACC-62 = system: UACC-62
# MDA-N = system: MDA-N
# A498 = system: A498
# U-251 = system: U-251
# MCF7 = system: MCF7
# SN12C = system: SN12C
# KM12 = system: KM12
# OVCAR-4 = system: OVCAR-4
# SNB-19 = system: SNB-19
# RPMI-8226 = system: RPMI-8226
# HL-60 = system: HL-60
# SR = system: SR
# MDA-MB-435 = system: MDA-MB-435
# PC-3 = system: PC-3
# SF-268 = system: SF-268
# SK-OV-3 = system: SK-OV-3
# NCI-H522 = system: NCI-H522
# HOP-92 = system: HOP-92
# EKVX = system: EKVX
# RXF 393 = system: RXF 393
Structure (SMILES),GI50 (UACC-62),GI50 (MDA-N),GI50 (A498),GI50 (U-251),GI50 (MCF7),GI50 (SN12C),GI50 (KM12),GI50 (OVCAR-4),GI50 (SNB-19),GI50 (RPMI-8226),GI50 (HL-60),GI50 (SR),GI50 (MDA-MB-435),GI50 (PC-3),GI50 (SF-268),GI50 (SK-OV-3),GI50 (NCI-H522),GI50 (HOP-92),GI50 (EKVX),GI50 (RXF 393)
NCCP(=O)(O)O,> 100 µM (inactive),> 100 µM (inactive),> 100 µM (inactive),> 100 µM (inactive),> 100 µM (inactive),> 100 µM (inactive),> 100 µM (inactive),> 100 µM (inactive),> 100 µM (inactive),> 100 µM (inactive),> 100 µM (inactive),> 100 µM (inactive),> 100 µM (inactive),> 100 µM (inactive),> 100 µM (inactive),> 100 µM (inactive),> 100 µM (inactive),> 100 µM (inactive),> 100 µM (inactive),> 100 µM (inactive)
CN(C)S(=O)(=O)c1ccc(Nc2ccc(O)c3c2C(=O)c2c([N+](=O)[O-])ccc(O)c2C3=O)cc1,> 100 µM (inactive),> 100 µM (inactive),> 100 µM (inactive),> 100 µM (inactive),> 100 µM (inactive),> 100 µM (inactive),> 100 µM (inactive),> 100 µM (inactive),> 100 µM (inactive),> 100 µM (inactive),> 100 µM (inactive),54.2 µM (inactive),> 100 µM (inactive),> 100 µM (inactive),> 100 µM (inactive),> 100 µM (inactive),52.8 µM (inactive),> 100 µM (inactive),> 100 µM (inactive),> 100 µM (inactive)
CC1Oc2cc3c(-c4c(O)cc(O)c5c(O)c6c(cc45)OC(C)C(C)C6=O)c(O)cc(O)c3c(O)c2C(=O)C1C (stereo not given),0.372 µM (active),0.359 µM (active),0.155 µM (active),0.038 µM (active),0.147 µM (active),0.11 µM (active),0.0607 µM (active),0.0869 µM (active),0.0832 µM (active),0.0489 µM (active),0.24 µM (active),0.054 µM (active),0.24 µM (active),0.0546 µM (active),0.254 µM (active),0.363 µM (active),0.343 µM (active),0.184 µM (active),0.116 µM (active),0.0173 µM (active)
Nc1ccc(Oc2ccc(C34CC5CC(C3)CC(c3ccc(Oc6ccc(N)c(O)c6)cc3)(C5)C4)cc2)cc1O,2.25 µM (inactive),1.95 µM (inactive),7.66 µM (inactive),1.36 µM (inactive),2.49 µM (inactive),2.45 µM (inactive),1.93 µM (inactive),2.24 µM (inactive),1.52 µM (inactive),2.54 µM (inactive),2.12 µM (inactive),0.424 µM (active),1.89 µM (inactive),1.75 µM (inactive),1.35 µM (inactive),3.1 µM (inactive),1.54 µM (inactive),1.98 µM (inactive),1.72 µM (inactive),1.41 µM (inactive)
C=C1C(=O)O[C@H]2[C@H]3O[C@@H](C[C@@H]12)[C@@]1(C)CC[C@H](O1)C(C)=CCC[C@H]3C,1.53 µM (inactive),1.53 µM (inactive),1.63 µM (inactive),1.61 µM (inactive),1.43 µM (inactive),1.65 µM (inactive),1.8 µM (inactive),1.59 µM (inactive),6.35 µM (inactive),0.513 µM (active),0.278 µM (active),0.065 µM (active),1.46 µM (inactive),1.49 µM (inactive),1.45 µM (inactive),4.58 µM (inactive),1.77 µM (inactive),1.55 µM (inactive),1.52 µM (inactive),1.48 µM (inactive)
COc1ccccc1C1ON=C(c2ccc([N+](=O)[O-])cc2)N1C12CC3CC(CC(C3)C1)C2 (stereo not given),> 100 µM (inactive),> 100 µM (inactive),> 100 µM (inactive),> 100 µM (inactive),47.9 µM (inactive),> 100 µM (inactive),> 100 µM (inactive),> 100 µM (inactive),> 100 µM (inactive),20.8 µM (inactive),4.35 µM (inactive),29.9 µM (inactive),96.4 µM (inactive),33 µM (inactive),> 100 µM (inactive),> 100 µM (inactive),73.8 µM (inactive),29.2 µM (inactive),> 100 µM (inactive),12.1 µM (inactive)
CC12CCC(C(Nc3ccccn3)C1=O)C2(C)C (stereo not given),> 100 µM (inactive),> 100 µM (inactive),> 100 µM (inactive),> 100 µM (inactive),> 100 µM (inactive),> 100 µM (inactive),> 100 µM (inactive),> 100 µM (inactive),> 100 µM (inactive),> 100 µM (inactive),> 100 µM (inactive),> 100 µM (inactive),> 100 µM (inactive),> 100 µM (inactive),> 100 µM (inactive),> 100 µM (inactive),> 100 µM (inactive),> 100 µM (inactive),> 100 µM (inactive),> 100 µM (inactive)
COC(=O)/C(=N\NC(N)=O)C(C(=O)C(=O)Nc1ccccc1OC)c1nc2ccc([N+](=O)[O-])cc2nc1O (stereo not given),> 100 µM (inactive),55.1 µM (inactive),> 100 µM (inactive),> 100 µM (inactive),> 100 µM (inactive),> 100 µM (inactive),58.1 µM (inactive),53 µM (inactive),> 100 µM (inactive),> 100 µM (inactive),> 100 µM (inactive),> 100 µM (inactive),44.3 µM (inactive),> 100 µM (inactive),> 100 µM (inactive),> 100 µM (inactive),> 100 µM (inactive),> 100 µM (inactive),> 100 µM (inactive),> 100 µM (inactive)
N#Cc1nc(C(F)(F)F)oc1N,> 100 µM (inactive),> 100 µM (inactive),> 100 µM (inactive),> 100 µM (inactive),> 100 µM (inactive),> 100 µM (inactive),> 100 µM (inactive),> 100 µM (inactive),> 100 µM (inactive),> 100 µM (inactive),> 100 µM (inactive),> 100 µM (inactive),> 100 µM (inactive),> 100 µM (inactive),> 100 µM (inactive),> 100 µM (inactive),66.1 µM (inactive),> 100 µM (inactive),> 100 µM (inactive),> 100 µM (inactive)
CN1CSC(=S)N(c2cccc(C(F)(F)F)c2)C1,16.9 µM (inactive),29.2 µM (inactive),28.3 µM (inactive),32 µM (inactive),17.3 µM (inactive),36.1 µM (inactive),22.4 µM (inactive),19.3 µM (inactive),21.5 µM (inactive),17.5 µM (inactive),25.5 µM (inactive),23.4 µM (inactive),22.5 µM (inactive),25.1 µM (inactive),23.1 µM (inactive),29.4 µM (inactive),16.4 µM (inactive),18.9 µM (inactive),25 µM (inactive),37.2 µM (inactive)
CC1(C)OCC(C2OC(N3O[C@H](CI)C[C@@H]3c3ccccc3)C3OC(C)(C)OC23)O1 (stereo not given in full),> 100 µM (inactive),> 100 µM (inactive),> 100 µM (inactive),> 100 µM (inactive),> 100 µM (inactive),> 100 µM (inactive),> 100 µM (inactive),> 100 µM (inactive),> 100 µM (inactive),43 µM (inactive),66.5 µM (inactive),48.5 µM (inactive),> 100 µM (inactive),34 µM (inactive),> 100 µM (inactive),> 100 µM (inactive),> 100 µM (inactive),> 100 µM (inactive),> 100 µM (inactive),> 100 µM (inactive)

# Source: ChEMBL document CHEMBL1201862, “PubChem BioAssay data set” (2004)
